Experimental data from the NIST ThermoML archive (doi:10.1021/je050540h).

Test: xn = mol fraction of the nth substance listed
Conditions: 101 kPa, Liquid

CCCC(C)O (centres undefined) [pentan-2-ol] + C1CCCC1
x2 = 0
Conditions | mass density [kg/m3] | speed of sound [m/s] | viscosity [mPa·s]
293.15 K | 809.04 | 1250 | 4.001
298.15 K | 805.01 | 1232 | 3.273
303.15 K | 800.9 | 1214 | 2.774

C1CCCCC1 [cyclohexane] + CCC(C)O
x1 = 1
Conditions | mass density [kg/m3] | speed of sound [m/s] | viscosity [mPa·s]
293.15 K | 778.62 | 1279 | 0.968
298.15 K | 773.92 | 1254 | 0.887
303.15 K | 769.19 | 1230 | 0.816

C1CCCC1 [cyclopentane] + CC(C)O
Conditions | mass density, 293.15 K [kg/m3] | mass density, 298.15 K [kg/m3] | mass density, 303.15 K [kg/m3] | speed of sound, 293.15 K [m/s] | speed of sound, 298.15 K [m/s] | speed of sound, 303.15 K [m/s] | viscosity, 293.15 K [mPa·s] | viscosity, 298.15 K [mPa·s] | viscosity, 303.15 K [mPa·s]
x1 = 0.0486 | 782.53 | 778.24 | 773.87 | 1156 | 1138 | 1120 | 2.105 | 1.823 | 1.587
x1 = 0.091 | 779.96 | 775.6 | 771.15 | 1155 | 1136 | 1118 | 1.874 | 1.627 | 1.421
x1 = 0.2019 | 774.33 | 769.77 | 765.12 | 1156 | 1136 | 1116 | 1.425 | 1.254 | 1.11
x1 = 0.2958 | 769.22 | 764.52 | 759.73 | 1156 | 1135 | 1114 | 1.172 | 1.038 | 0.925
x1 = 0.3877 | 764.63 | 759.81 | 754.9 | 1158 | 1136 | 1114 | 0.954 | 0.856 | 0.77
x1 = 0.4823 | 760.38 | 755.45 | 750.44 | 1162 | 1139 | 1116 | 0.799 | 0.724 | 0.658
x1 = 0.5974 | 755.59 | 750.58 | 745.49 | 1168 | 1145 | 1121 | 0.641 | 0.588 | 0.542
x1 = 0.7206 | 750.97 | 745.92 | 740.79 | 1179 | 1154 | 1130 | 0.535 | 0.499 | 0.466
x1 = 0.8136 | 747.96 | 742.89 | 737.76 | 1190 | 1165 | 1140 | 0.484 | 0.454 | 0.427
x1 = 0.9219 | 745.39 | 740.33 | 735.2 | 1208 | 1183 | 1157 | 0.449 | 0.424 | 0.401
x1 = 0.9533 | 744.87 | 739.86 | 734.72 | 1215 | 1189 | 1164 | 0.443 | 0.419 | 0.398
x1 = 1 | 744.52 | 739.55 | 734.54 | 1232 | 1206 | 1180 | 0.438 | 0.416 | 0.394

C1CCCC1 [cyclopentane] + CCCC(C)O
Conditions | mass density, 293.15 K [kg/m3] | mass density, 298.15 K [kg/m3] | mass density, 303.15 K [kg/m3] | speed of sound, 293.15 K [m/s] | speed of sound, 298.15 K [m/s] | speed of sound, 303.15 K [m/s] | viscosity, 293.15 K [mPa·s] | viscosity, 298.15 K [mPa·s] | viscosity, 303.15 K [mPa·s]
x1 = 0.045 | 806.38 | 802.28 | 798.1 | 1246 | 1227 | 1208 | 3.573 | 2.948 | 2.459
x1 = 0.103 | 802.8 | 798.62 | 794.35 | 1239 | 1220 | 1200 | 3.005 | 2.509 | 2.118
x1 = 0.1878 | 797.38 | 793.07 | 788.68 | 1229 | 1209 | 1189 | 2.322 | 1.969 | 1.687
x1 = 0.2924 | 790.57 | 786.12 | 781.6 | 1218 | 1198 | 1177 | 1.723 | 1.491 | 1.304
x1 = 0.3906 | 783.89 | 779.33 | 774.71 | 1209 | 1188 | 1167 | 1.296 | 1.148 | 1.027
x1 = 0.5117 | 775.68 | 771.03 | 766.32 | 1201 | 1179 | 1157 | 0.957 | 0.87 | 0.794
x1 = 0.6242 | 768.16 | 763.43 | 758.63 | 1197 | 1175 | 1152 | 0.747 | 0.694 | 0.645
x1 = 0.721 | 761.81 | 756.98 | 752.09 | 1198 | 1175 | 1152 | 0.629 | 0.587 | 0.548
x1 = 0.8091 | 756.27 | 751.36 | 746.38 | 1202 | 1178 | 1154 | 0.552 | 0.516 | 0.487
x1 = 0.9094 | 749.82 | 744.82 | 739.76 | 1211 | 1186 | 1161 | 0.482 | 0.453 | 0.428
x1 = 0.9552 | 746.94 | 741.92 | 736.85 | 1218 | 1193 | 1167 | 0.455 | 0.43 | 0.407
x1 = 1 | 744.52 | 739.55 | 734.54 | 1232 | 1206 | 1180 | 0.439 | 0.416 | 0.394
